Experimental data taken from article PMC7542481, “Synthesis of Amino Acid Schiff Base Nickel (II) Complexes as Potential Anticancer Drugs In Vitro” (Bioinorganic Chemistry and Applications, 2020).

Tests used:
[1] = test system: esophageal cancer Eca-109; test: MTT cytotoxicity assay, Eca-109; type: cell-based, human; settings: treatment 48 h
Method: (§1) 3-(4,5-Dimethylthiazol-2-yl)-2, 5-diphenyltetrazolium bromide (MTT) method was used to assay the cytotoxicity in vitro. Complexes 1–3, ligands (L1, L2, and L3), Ni (CH3COO)2, and cisplatin were dissolved in DMSO at the concentration of 20 mM as a stock solution for subsequent testing. Four different cancer cell lines (MCF-7, SGC-7901, Eca-109, and HepG2) and one normal cell line (HSF) were seeded in 96-well and cultured at 37 °C in 5% CO2. After 24 h, the medium was replaced by different concentrations of complex and incubated for 48 h. 10 μL MTT dye (5 mg/mL) was added to each well and incubated for another 4 h. After that, the medium was removed and DMSO (100 μL) was added to solubilize the MTT formazan. A microplate reader (Bio-Rad iMark™) was used to measure the OD value of each well at a wavelength of 490 nm. Each experiment was repeated at least three times, and GraphPad Prism 5.0 was used to analyze the IC50 values.

Eca-109 cells [2] = test: Hoechst 33342 staining, fluorescence microscopy; type: cell-based, human; settings: Eca-109, 20 μM and 40 μM, 24 h
Method: With the density of 2 × 10^5 cells per well, Eca-109 cells were cultured in a 6-well plate for 24 h. After that, the medium was replaced by different concentrations of complex 2 and incubated for another 24 h. Then, cells were washed twice with ice-cold PBS, stained with 10 μg/mL Hoechst 33342 for 15 minutes, and photographed by fluorescence microscopy (Nikon Eclipse Ti–E, Nikon Instruments Inc., Japan).

Bad = test: Western blot assay, Bad; type: cell-based, human; settings: Eca-109, 24 h, concentration-dependent
Method: (§2) After incubation with different concentrations of complex 2, cells were harvested in a radioimmunoprecipitation assay (RIPA) buffer with protease inhibitors and phosphatase inhibitors. BCA Protein Assay Kit was used to determine the protein concentration. Then, the expression levels of proteins associated with Bcl-2 family and autophagy were measured by Western blot assay.

LC3B-II = test: Western blot assay, LC3B-II; type: cell-based, human; settings: Eca-109, 24 h, concentration-dependent
Method: as §2

Eca-109 cells [3] = test: Mitochondrial membrane potential by JC-1 staining, flow cytometry; type: cell-based, human; settings: 24 h, control 4.69%
Method: After being treated with different concentrations of complex 2, the cells were collected and incubated in 500 μL PBS containing 10 μg/mL JC-1 for 20 min at 37°C in the dark. Then, the cells were resuspended in PBS and analyzed by flow cytometry (BD FACS Aria III).

Eca-109 cells [4] = test: AO/EB double staining, fluorescence microscopy; type: cell-based, human; settings: Eca-109, 20 μM and 40 μM, 24 h
Method: AO/EB double staining was used to observe the changes in apoptotic cells. Eca-109 cells were cultured in a 6-well plate for 24 h. Then, cells were treated with different concentrations of complex 2 for another 24 h. After that, cells were washed twice with ice-cold PBS, stained with 100 μg/mL AO/EB for 10 minutes, and photographed by fluorescence microscopy (Nikon Eclipse Ti–E, Nikon Instruments Inc., Japan).

p62 = test: Western blot assay, p62; type: cell-based, human; settings: Eca-109, 24 h, concentration-dependent
Method: as §2

Bcl-2 = test: Western blot assay, Bcl-2; type: cell-based, human; settings: Eca-109, 24 h, concentration-dependent
Method: as §2

Eca-109 cells [5] = test: Intracellular ROS level, DCFH-DA probe; type: cell-based, human; settings: Eca-109, 20 μM and 40 μM, 24 h
Method: Eca-109 cells were seeded into a 6-well plate at a density of 2 × 10^5 cells per well and incubated for 24 h. Then, the medium was replaced and incubated with different concentrations of complex 2 for another 24 h. After that, cells were washed twice with ice-cold PBS, stained with 10 μM DCFH-DA for 30 minutes, and photographed by fluorescence microscopy (Nikon Eclipse Ti–E, Nikon Instruments Inc., Japan).

Eca-109 cells [6] = test: Autophagy assay, MDC staining; type: cell-based, human; settings: Eca-109, 20 μM and 40 μM, 24 h, compared to the control group
Method: Eca-109 cells were seeded in 6-well plates and incubated at 37 °C in 5% CO2 for 24 h. Then, the medium was replaced with different concentrations of complex 2 for another 24 h. After that, the medium was removed and the cells were washed twice with ice-cold PBS. Then, the cells were stained with MDC (monodansylcadaverine) solution (50 μM) for 15 min, and the data were obtained by flow cytometry (BD FACS Aria III).

Eca-109 cells [7] = test: Cell cycle arrest assay, PI staining, flow cytometry; type: cell-based, human; settings: for percentage of cells in S phase / percentage in the cell at the G2/M phase / percentage in the cell at the G0/G1 phase: 24 h; for percentage in the cell at the G2/M phase: control 6.35%; for percentage in the cell at the G0/G1 phase: control 63.82%
Method: After treatment with different concentrations of complex 2, the cells were collected and fixed with 70% ethanol for the night. Then, the cells were incubated in 500 μL PBS containing Triton X-100 (0.1% v/v), RNase A (0.2 mg/mL), and propidium iodide (PI, 0.02 mg/mL) for 15 min. Then, the cells were analyzed by flow cytometry (BD FACS Aria III).

Eca-109 cells [8] = test: Annexin V-PE/7-AAD staining apoptosis assay by flow cytometry (with or without NAC or 3-MA pretreatment); type: cell-based, human; settings: for percentage of apoptotic cells: 24 h, control 7.30%
Method: N-acetyl-L-cysteine (NAC), as a ROS scavenger, was added in a medium for 1 h before the addition of complex 2 to examine the effect of ROS on cell viability. The percentage of apoptotic cells was detected by Annexin V-PE/7-AAD staining assay after complex 2 treatment with or without NAC.
Different stages of apoptosis induced by complex 2 were determined by Annexin V-PE and 7-AAD staining according to the manufacture's protocol for the Annexin V Apoptosis Detection Kit (BD, Bioscience). Eca-109 cells were seeded in a 6-well plate with a density of 2 × 10^5 cells per well and cultured at 37°C in 5% CO2 for 24 h. Then, different concentrations of complex 2 were added into the above well and incubated for another 24 h. The cells were resuspended in binding buffer, stained with 5 μL Annexin V-PE and 5 μL 7-AAD at room temperature for 15 min, and analyzed using the flow cytometer (BD FACS Aria III).
3-MA, as an autophagic inhibitor, was added in a medium for 1 h before the addition of complex 2 to examine the effect of autophagy on cell viability. The percentage of apoptotic cells was detected by Annexin V-PE/7-AAD staining assay after complex 2 treatment with or without 3-MA.

Beclin-1 = test: Western blot assay, Beclin-1; type: cell-based, human; settings: Eca-109, 24 h, concentration-dependent
Method: as §2

gastric cancer SGC-7901 = test: MTT cytotoxicity assay, SGC-7901; type: cell-based, human; settings: treatment 48 h
Method: as §1

Bcl-xL = test: Western blot assay, Bcl-xL; type: cell-based, human; settings: Eca-109, 24 h, concentration-dependent
Method: as §2

Bax = test: Western blot assay, Bax; type: cell-based, human; settings: Eca-109, 24 h, concentration-dependent
Method: as §2

normal human cells HSF = test: MTT cytotoxicity assay, HSF; type: cell-based; settings: treatment 48 h
Method: as §1

breast cancer MCF-7 = test: MTT cytotoxicity assay, MCF-7; type: cell-based, human; settings: treatment 48 h
Method: as §1

[9] = test system: hepatocellular carcinoma HepG2; test: MTT cytotoxicity assay, HepG2; type: cell-based, human; settings: treatment 48 h
Method: as §1

For `CO.CO.CO.COc1cccc(C=N[C@H](Cc2c[nH]c3ccccc23)C(=O)[O-])c1[O-].[Ni+2].c1cnc2c(c1)ccc1cccnc12` [Complex 2, [Ni (Trp-o-van) (phen) (CH3OH)]•2CH3OH], the IC50 [1] was 18.1 ± 2.39 µM, the “apoptotic characteristics, Hoechst 33342 staining” value (Eca-109 cells [2]) was “apoptotic characteristics were also observed” and the “expression level of Bad” value (Bad) was “significantly increased”. The “expression level of LC3B-II” value (LC3B-II) was “increased”, the “green fluorescence of the JC-1 monomers (loss of MMP)” value (Eca-109 cells [3]; Eca-109, 20 μM) was 6.86% and the “green fluorescence of the JC-1 monomers (loss of MMP)” value (Eca-109 cells [3]; Eca-109, 40 μM) was 49.5%. For the same compound, the “morphological changes, AO/EB staining” value (Eca-109 cells [4]) was “nuclear shrinkage, chromatin condensation, and late apoptotic cells containing red apoptotic bodies”, the “expression level of p62” value (p62) was “decreased” and the “expression level of Bcl-2” value (Bcl-2) was “significantly decreased”. The “intracellular ROS level (DCF fluorescence)” value (Eca-109 cells [5]) was “increase the intracellular ROS level in a dosage-dependent manner”, the “MDC staining intensity (autophagy level)” value (Eca-109 cells [6]) was “increased significantly” and the “cell cycle arrest (in words)” value (Eca-109 cells [7]; Eca-109) was “cell cycle arrest in the G2/M phase”. For the same compound, the “percentage of cells in S phase” value (Eca-109 cells [7]; Eca-109, 20 μM) was 33.27%, the “percentage in the cell at the G2/M phase” value (Eca-109 cells [7]; Eca-109, 20 μM) was 7.21% and the “percentage in the cell at the G0/G1 phase” value (Eca-109 cells [7]; Eca-109, 20 μM) was 59.51%. For the same compound, the “percentage of cells in S phase” value (Eca-109 cells [7]; Eca-109, 40 μM) was 31.32%, the “percentage in the cell at the G2/M phase” value (Eca-109 cells [7]; Eca-109, 40 μM) was 19.84% and the “percentage in the cell at the G0/G1 phase” value (Eca-109 cells [7]; Eca-109, 40 μM) was 48.84%. The “percentage of apoptotic cells” value (Eca-109 cells [8]; Eca-109, 20 μM) was 8.78%, the “percentage of apoptotic cells” value (Eca-109 cells [8]; Eca-109, 40 μM) was 29.40% and the “percentage of apoptosis cells with NAC pretreatment versus without” value (Eca-109 cells [8]; Eca-109, 24 h, NAC added 1 h before) was “reduced”. The “expression level of Beclin-1” value (Beclin-1) was “increased”, the IC50 (gastric cancer SGC-7901) was 15.7 ± 1.46 µM and the “expression level of Bcl-xL” value (Bcl-xL) was “significantly decreased”. The “expression level of Bax” value (Bax) was “significantly increased”, the IC50 (normal human cells HSF) was 23.9 ± 0.74 µM and the IC50 (breast cancer MCF-7) was 16.1 ± 1.32 µM. It also gave an IC50 [9] of 47.29 ± 0.35 µM.

Compound `COc1cccc(C=N[C@H](Cc2c[nH]c3ccccc23)C(=O)O)c1O` [Complex L2] has an IC50 [1] of over 80 µM, an IC50 (gastric cancer SGC-7901) of over 80 µM and an IC50 (breast cancer MCF-7) of over 80 µM. It also gave an IC50 [9] of over 80 µM.

`O=C([O-])[C@@H](Cc1c[nH]c2ccccc12)N=Cc1c([O-])ccc2ccccc12.[Ni+2].c1cnc2c(c1)ccc1cccnc12` [Complex 3, [Ni (Trp-naph) (phen) (CH3OH)]] was tested, and the IC50 [1] was 21.9 ± 3.19 µM, the IC50 (gastric cancer SGC-7901) was 24.3 ± 0.95 µM and the IC50 (normal human cells HSF) was 32.5 ± 1.98 µM. The IC50 (breast cancer MCF-7) was 23.7 ± 0.55 µM and the IC50 [9] was 28.1 ± 1.34 µM.

`O=C(O)C(Cc1c[nH]c2ccccc12)N=Cc1ccccc1O` (stereo not drawn) [Complex L1] gave an IC50 [1] of over 80 µM, an IC50 (gastric cancer SGC-7901) of over 80 µM and an IC50 (breast cancer MCF-7) of over 80 µM. For the same compound, the IC50 [9] was over 80 µM.

`N.N.[Cl][Pt][Cl]` [Cisplatin, reference compound] showed an IC50 [1] of 11.9 ± 0.19 µM, an IC50 (gastric cancer SGC-7901) of 11.7 ± 1.45 µM and an IC50 (normal human cells HSF) of 17.1 ± 1.31 µM. The IC50 (breast cancer MCF-7) was 12.3 ± 0.75 µM and the IC50 [9] was 13.9 ± 0.58 µM.

`O=C(O)[C@@H](Cc1c[nH]c2ccccc12)N=Cc1c(O)ccc2ccccc12` [Complex L3] gave an IC50 [1] of 48.4 ± 4.99 µM, an IC50 (gastric cancer SGC-7901) of 42.7 ± 1.13 µM and an IC50 (breast cancer MCF-7) of over 80 µM. For the same compound, the IC50 [9] was over 80 µM.

With `Cn1cnc(N)c2ncnc1-2` [Complex 3-MA, 3-methyladenine, reference compound] the toxicity toward cells (Eca-109 cells [8]; Eca-109, 3-MA alone) was “nontoxicity”.

`O=C1[O][Ni][O]c2ccccc2C=N[C@@H]1Cc1c[nH]c2ccccc12.c1cnc2c(c1)ccc1cccnc12` [Complex 1, [Ni (Trp-sal) (phen) (CH3OH)]] showed an IC50 [1] of 23.9 ± 2.54 µM, an IC50 (gastric cancer SGC-7901) of 34 ± 2.5 µM and an IC50 (normal human cells HSF) of 60.9 ± 1.76 µM. It also gave an IC50 (breast cancer MCF-7) of 75.75 ± 0.41 µM and an IC50 [9] of over 80 µM.

`CC(=O)[O-].CC(=O)[O-].[Ni+2]` [Ni (CH3COO)2, reference compound] was tested, and the IC50 [1] was 43.5 ± 1.34 µM, the IC50 (gastric cancer SGC-7901) was 41.4 ± 0.87 µM and the IC50 (breast cancer MCF-7) was over 80 µM. For the same compound, the IC50 [9] was over 80 µM.
